Data set [1] can be described thus: Titration of hydrocarbon oil into F-octanes until phase separation; solubilization by diblock dispersing agent. The following applies: for amount of hydrocarbon oil at which phase separation occurred: titrated into F-Octanes (8.82 g), before dispersing agent.
Data set [2] is described as follows: Micelle formation in perfluorooctanes by FTIR (C-H stretching frequency). Type of data set: physicochemical. The note with it: in F-octanes. As for the experimental part: A series of solutions of CF3 (CF2) 7 (CH2) 15 CH3 (F8H16; 0.02 mol/L to 0.2 mol/L) were prepared in F-octanes (purity≥98%) and the frequency of the carbon to hydrogen (--C--H) stretching mode (T=50° C.) measured using FTIR (Fourier Transform Infrared Spectroscopy). The formation of F8H16 micelles in a fluorocarbon continuous phase results in the transfer of the F8H16 hydrocarbon groups from a fluorocarbon rich environment in the molecular solution to a hydrocarbon rich environment at the interior of the micelles. The occurrence of this phase change can be measured as a change in the FTIR stretching frequency for the carbon-hydrogen bonds in the --CH2 groups of the FmHn molecules. […] The inflection point in the curve confirmed the existence of F8H16 micelles and was used to define the critical micelle concentration at about 0.05 mol/L.
A series of solutions of CF3 (CF2) 5 (CH2) 13 CH3 (F6H14; 0.02 mol/L to 0.2 mol/L) were prepared in F-octanes (purity≥98%) and the frequency of the carbon to hydrogen (--C--H) stretching mode (T=25° C.) measured using FTIR. The formation of F6H14 micelles was measured as a change in the FTIR stretching frequency for the carbon-hydrogen bonds in the --CH2 groups of the FmHn molecules. […] The inflection point in the curve confirmed the existence of F6H14 micelles and was used to define the critical micelle concentration at about 0.1 mol/L.

The conditions of data set [3]: cited from earlier work; for Log Po/w: octanol/water.

As for `COC(=O)c1ccccc1O` [methyl salicylate], the “amount of hydrocarbon oil at which phase separation occurred” value in data set [1] was in the range of 10 to 20 µL. The “solubilization in F-Octanes” value in data set [1] (with F6H14 (17.3%, w/v)) was 2.2 %, v/v.
Consider `CCCCCC` [n-hexane], for which the “amount of hydrocarbon oil at which phase separation occurred” value in data set [1] worked out at 1700 µL. Also, in data set [1] (with F8H16 (7.82%, w/v)), the “solubilization in F-Octanes” value is recorded as 36.5 %, v/v.
On to `CCCCCCCCCCCCCCC(F)(F)C(F)(F)C(F)(F)C(F)(F)C(F)(F)C(F)(F)F` [Example F6H14], for which, in data set [2] (T=25° C.), the critical micelle concentration result is on record as “about 0.1 mol/L”.
For `CC(=O)[C@@]1(O)CC[C@H]2[C@@H]3C[C@H](C)C4=CC(=O)C=C[C@]4(C)[C@@]3(F)[C@@H](O)C[C@@]21C` [^3 H-fluorometholone], the “Octanol/water partition coefficient Po/w” value in data set [3] is given as 1.26 × 10^2.
Take `CCCCNc1ccc(C(=O)OCCN(C)C)cc1` [tetracaine]: the “Octanol/water partition coefficient Po/w” value in data set [3] was 79.4.
For `CC(C)(C)NCC(O)COc1cccc2c1CCCC2=O` (stereo not drawn) [^14 C-bunolol], in data set [3], the “Octanol/water partition coefficient Po/w” value is recorded as 2.51 × 10^2.
`FC(F)(F)C(Cl)Br` (stereo not drawn) [halothane]: in data set [3], the “Octanol/water partition coefficient Po/w” value is 2.00 × 10^2 and the “Log Po/w” value was 2.30.
Turning to `Clc1cccc(Cl)c1N=C1NCCN1` [^3 H-clonidine], in data set [3], the “Octanol/water partition coefficient Po/w” value was 25.1.
For the molecule `CCCCCCCCCCCCCCCCC(F)(F)C(F)(F)C(F)(F)C(F)(F)C(F)(F)C(F)(F)C(F)(F)C(F)(F)F` [Example F8H16, 1-(F-octyl)hexadecane], in data set [2] (T=50° C.), the critical micelle concentration entry is given as “about 0.05 mol/L”.
Take `CCCCC(CC)COC(=O)c1ccc(N(C)C)cc1` (stereo not drawn) [^14 C-padimate-o]: the “Octanol/water partition coefficient Po/w” value in data set [3] is recorded as 3.98 × 10^6.
Consider `COc1ccc(C(=O)CC(=O)c2ccc(C(C)(C)C)cc2)cc1` [^3 H-parsol 1789], for which, in data set [3], the “Octanol/water partition coefficient Po/w” value is 5.0 × 10^6 and the “Log Po/w” value is 6.7.
